# Results taken from ChEMBL document CHEMBL5465560, “Selectivity Literature for EUbOPEN Chemogenomic Library” (2024).
# Key:
# [1] = target: Mitogen-activated protein kinase 3 (Homo sapiens, UniProt P27361); experiment: Selectivity interaction (KinomeScan (DiscoverX)) EUB0001079a MAPK3; settings: at 1 µM
# [2] = target: T1, Histone-arginine methyltransferase CARM1 (Homo sapiens) (UniProt Q86X55); settings: KMS-27, at 3 µM
# T1 sequence (whole entry): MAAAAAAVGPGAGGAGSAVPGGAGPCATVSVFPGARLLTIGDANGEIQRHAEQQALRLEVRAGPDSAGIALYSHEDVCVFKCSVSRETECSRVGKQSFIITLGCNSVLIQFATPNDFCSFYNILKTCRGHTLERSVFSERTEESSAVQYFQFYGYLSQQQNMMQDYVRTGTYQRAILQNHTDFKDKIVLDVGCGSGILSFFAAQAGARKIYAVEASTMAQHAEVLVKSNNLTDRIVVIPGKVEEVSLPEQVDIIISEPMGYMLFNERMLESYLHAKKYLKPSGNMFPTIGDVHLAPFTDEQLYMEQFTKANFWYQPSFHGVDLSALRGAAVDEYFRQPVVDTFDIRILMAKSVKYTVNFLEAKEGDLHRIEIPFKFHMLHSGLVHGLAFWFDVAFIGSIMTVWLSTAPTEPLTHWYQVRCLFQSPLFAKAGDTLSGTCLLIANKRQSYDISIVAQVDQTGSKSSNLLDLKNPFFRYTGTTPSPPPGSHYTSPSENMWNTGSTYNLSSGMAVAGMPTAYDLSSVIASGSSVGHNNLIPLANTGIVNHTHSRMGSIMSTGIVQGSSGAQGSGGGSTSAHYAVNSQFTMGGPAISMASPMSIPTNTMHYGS
# [3] = target: Phosphatidylinositol 4-phosphate 5-kinase type-1 alpha (Homo sapiens) (UniProt Q99755); settings: at 10 µM
# [4] = target: Mitogen-activated protein kinase 1 (Homo sapiens, UniProt P28482); experiment: Selectivity interaction (ActivX KiNativ screen (kinase selectivity in THP-1 cell lysates)) EUB0000639a MAPK1; assay type: subcellular; settings: lysate, at 5 µM
# [5] = target: Tyrosine-protein kinase receptor Tie-1 (Homo sapiens) (UniProt P35590); experiment: Selectivity interaction (KinomeScan (DiscoverX)) EUB0000229b TIE1; settings: at 10 µM
# [6] = target: T2, cGMP-dependent protein kinase 1 (Homo sapiens) (UniProt Q13976); experiment: Selectivity interaction (KinomeScan (DiscoverX)) EUB0000666a PRKG1; settings: at 10 µM
# T2 sequence (whole entry): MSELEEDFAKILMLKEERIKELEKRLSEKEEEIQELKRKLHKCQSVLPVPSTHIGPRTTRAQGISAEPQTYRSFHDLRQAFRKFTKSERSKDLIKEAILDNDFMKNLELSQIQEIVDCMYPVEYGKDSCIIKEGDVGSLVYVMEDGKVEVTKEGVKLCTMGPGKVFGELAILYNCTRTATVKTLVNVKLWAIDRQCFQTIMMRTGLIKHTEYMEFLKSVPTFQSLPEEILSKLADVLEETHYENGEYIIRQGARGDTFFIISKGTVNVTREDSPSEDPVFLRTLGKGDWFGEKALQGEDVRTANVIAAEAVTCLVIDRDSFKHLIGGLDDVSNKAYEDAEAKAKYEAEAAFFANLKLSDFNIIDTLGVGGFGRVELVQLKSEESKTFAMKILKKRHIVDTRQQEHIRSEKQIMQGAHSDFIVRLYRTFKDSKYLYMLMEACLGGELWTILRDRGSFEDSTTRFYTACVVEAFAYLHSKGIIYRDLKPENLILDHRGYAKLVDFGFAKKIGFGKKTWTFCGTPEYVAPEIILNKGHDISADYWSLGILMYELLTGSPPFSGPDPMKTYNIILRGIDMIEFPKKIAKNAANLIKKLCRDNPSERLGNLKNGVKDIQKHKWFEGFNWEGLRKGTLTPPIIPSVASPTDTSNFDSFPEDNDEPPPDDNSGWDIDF
# [7] = tested on: Proto-oncogene tyrosine-protein kinase receptor Ret (Homo sapiens), P07949 [V804M]; experiment: Selectivity interaction (KinomeScan (DiscoverX)) EUB0000311b RET; settings: at 1 µM
# [8] = target: T3, Protein kinase C zeta type (Homo sapiens) (UniProt Q05513); experiment: Selectivity interaction (Kinase panel (Z-LYTE Assay)) EUB0001632a PRKCZ; settings: at 10 µM
# T3 sequence (whole entry): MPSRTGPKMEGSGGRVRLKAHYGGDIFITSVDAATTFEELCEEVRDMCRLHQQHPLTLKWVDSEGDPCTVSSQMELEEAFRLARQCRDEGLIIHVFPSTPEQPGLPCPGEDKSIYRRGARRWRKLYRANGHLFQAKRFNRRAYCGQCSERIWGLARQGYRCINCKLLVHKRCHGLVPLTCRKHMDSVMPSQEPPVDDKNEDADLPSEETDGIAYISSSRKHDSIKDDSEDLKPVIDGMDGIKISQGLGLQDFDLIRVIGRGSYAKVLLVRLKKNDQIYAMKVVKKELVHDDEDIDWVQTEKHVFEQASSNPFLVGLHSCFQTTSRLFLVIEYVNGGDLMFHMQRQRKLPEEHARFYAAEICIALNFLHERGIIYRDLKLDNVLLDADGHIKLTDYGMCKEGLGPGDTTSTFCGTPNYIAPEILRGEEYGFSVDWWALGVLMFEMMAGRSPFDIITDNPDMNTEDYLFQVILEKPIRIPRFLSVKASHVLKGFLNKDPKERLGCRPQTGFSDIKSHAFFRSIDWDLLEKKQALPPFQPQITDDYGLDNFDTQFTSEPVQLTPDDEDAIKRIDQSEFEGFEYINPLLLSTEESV
# [9] = target: T4, Mitogen-activated protein kinase 13 (Homo sapiens) (UniProt O15264); experiment: Selectivity interaction (KinomeScan (DiscoverX)) EUB0000695a MAPK13; settings: at 100 nM
# T4 sequence (whole entry): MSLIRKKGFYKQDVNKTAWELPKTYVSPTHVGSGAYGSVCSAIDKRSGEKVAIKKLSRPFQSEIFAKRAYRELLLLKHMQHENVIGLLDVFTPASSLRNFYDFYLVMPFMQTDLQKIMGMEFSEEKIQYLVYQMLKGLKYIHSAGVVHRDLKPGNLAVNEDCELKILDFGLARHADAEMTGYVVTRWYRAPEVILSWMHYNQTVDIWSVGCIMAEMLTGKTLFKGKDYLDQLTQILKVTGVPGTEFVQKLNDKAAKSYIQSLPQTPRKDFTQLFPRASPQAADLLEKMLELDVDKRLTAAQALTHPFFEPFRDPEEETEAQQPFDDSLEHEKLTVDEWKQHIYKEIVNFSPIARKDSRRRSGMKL
# Sequence of Mitogen-activated protein kinase 3 (P27361 whole entry): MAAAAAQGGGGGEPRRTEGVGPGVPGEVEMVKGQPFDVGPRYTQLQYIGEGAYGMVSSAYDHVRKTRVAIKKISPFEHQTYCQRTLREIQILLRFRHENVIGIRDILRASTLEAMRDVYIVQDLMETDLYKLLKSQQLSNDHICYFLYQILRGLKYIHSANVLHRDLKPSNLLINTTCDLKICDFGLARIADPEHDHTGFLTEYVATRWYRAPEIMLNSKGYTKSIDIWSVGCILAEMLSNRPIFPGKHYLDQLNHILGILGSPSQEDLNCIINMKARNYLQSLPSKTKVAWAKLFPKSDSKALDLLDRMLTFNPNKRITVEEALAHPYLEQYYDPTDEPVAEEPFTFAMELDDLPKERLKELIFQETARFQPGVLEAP
# Sequence of Tyrosine-protein kinase receptor Tie-1 (Homo sapiens) (P35590 whole entry): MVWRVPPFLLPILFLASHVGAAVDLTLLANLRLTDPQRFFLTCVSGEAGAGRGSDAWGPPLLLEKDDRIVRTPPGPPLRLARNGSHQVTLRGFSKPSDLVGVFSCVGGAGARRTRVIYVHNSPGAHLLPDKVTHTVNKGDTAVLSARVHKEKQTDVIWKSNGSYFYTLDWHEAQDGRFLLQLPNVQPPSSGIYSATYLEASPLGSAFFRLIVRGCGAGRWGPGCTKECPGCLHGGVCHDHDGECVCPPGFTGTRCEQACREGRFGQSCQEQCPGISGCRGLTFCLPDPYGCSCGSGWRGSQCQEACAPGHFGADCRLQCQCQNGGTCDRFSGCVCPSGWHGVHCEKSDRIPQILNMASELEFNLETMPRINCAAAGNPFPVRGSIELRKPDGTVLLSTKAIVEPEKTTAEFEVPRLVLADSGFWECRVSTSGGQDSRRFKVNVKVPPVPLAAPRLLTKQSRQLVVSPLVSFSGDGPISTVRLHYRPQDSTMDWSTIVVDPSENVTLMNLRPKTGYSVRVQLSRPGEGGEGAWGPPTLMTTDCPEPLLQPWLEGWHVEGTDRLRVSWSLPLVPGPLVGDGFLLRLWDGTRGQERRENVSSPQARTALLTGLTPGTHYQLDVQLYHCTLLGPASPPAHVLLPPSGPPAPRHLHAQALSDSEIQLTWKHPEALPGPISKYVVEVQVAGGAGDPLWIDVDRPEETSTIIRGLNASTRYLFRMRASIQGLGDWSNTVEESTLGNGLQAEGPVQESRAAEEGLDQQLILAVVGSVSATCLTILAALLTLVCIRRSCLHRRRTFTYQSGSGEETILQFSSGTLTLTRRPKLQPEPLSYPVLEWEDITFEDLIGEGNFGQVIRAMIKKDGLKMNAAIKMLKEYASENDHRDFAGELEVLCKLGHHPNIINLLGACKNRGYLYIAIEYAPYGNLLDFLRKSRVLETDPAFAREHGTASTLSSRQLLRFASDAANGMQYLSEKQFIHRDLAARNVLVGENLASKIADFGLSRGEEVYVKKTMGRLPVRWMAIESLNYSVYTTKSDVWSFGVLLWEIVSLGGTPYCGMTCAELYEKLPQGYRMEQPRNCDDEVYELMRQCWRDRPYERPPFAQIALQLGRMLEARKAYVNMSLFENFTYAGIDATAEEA
# Sequence of Proto-oncogene tyrosine-protein kinase receptor Ret (Homo sapiens), P07949 [V804M] (P07949 whole entry V804M): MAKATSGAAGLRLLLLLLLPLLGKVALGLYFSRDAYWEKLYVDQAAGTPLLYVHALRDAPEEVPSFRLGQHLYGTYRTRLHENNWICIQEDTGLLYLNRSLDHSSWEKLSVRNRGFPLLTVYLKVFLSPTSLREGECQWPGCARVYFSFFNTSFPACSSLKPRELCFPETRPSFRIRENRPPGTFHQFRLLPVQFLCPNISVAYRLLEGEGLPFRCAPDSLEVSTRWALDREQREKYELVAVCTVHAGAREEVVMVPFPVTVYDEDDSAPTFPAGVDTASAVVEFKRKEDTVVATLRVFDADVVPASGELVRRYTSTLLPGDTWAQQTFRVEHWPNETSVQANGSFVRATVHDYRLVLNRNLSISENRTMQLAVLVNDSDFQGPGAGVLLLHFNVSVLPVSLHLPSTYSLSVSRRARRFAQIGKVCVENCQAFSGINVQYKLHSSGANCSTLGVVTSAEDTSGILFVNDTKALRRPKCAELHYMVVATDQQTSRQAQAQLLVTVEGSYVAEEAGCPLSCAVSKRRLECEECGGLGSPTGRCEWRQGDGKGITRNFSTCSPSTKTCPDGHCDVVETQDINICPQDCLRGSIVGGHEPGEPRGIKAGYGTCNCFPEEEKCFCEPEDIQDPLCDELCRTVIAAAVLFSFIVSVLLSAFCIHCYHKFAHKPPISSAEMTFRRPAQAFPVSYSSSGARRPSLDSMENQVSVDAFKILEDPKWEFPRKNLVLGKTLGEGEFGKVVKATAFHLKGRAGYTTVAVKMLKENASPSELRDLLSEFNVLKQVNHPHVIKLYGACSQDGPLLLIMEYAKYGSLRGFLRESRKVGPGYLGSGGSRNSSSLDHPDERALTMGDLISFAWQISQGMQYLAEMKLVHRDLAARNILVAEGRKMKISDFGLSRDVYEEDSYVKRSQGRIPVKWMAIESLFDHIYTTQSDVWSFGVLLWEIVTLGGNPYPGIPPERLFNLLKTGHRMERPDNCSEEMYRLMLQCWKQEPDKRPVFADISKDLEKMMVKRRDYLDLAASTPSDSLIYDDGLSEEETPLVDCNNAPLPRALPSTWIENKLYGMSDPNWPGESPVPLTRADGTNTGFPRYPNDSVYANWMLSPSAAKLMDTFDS
# Sequence of Phosphatidylinositol 4-phosphate 5-kinase type-1 alpha (Homo sapiens) (Q99755 whole entry): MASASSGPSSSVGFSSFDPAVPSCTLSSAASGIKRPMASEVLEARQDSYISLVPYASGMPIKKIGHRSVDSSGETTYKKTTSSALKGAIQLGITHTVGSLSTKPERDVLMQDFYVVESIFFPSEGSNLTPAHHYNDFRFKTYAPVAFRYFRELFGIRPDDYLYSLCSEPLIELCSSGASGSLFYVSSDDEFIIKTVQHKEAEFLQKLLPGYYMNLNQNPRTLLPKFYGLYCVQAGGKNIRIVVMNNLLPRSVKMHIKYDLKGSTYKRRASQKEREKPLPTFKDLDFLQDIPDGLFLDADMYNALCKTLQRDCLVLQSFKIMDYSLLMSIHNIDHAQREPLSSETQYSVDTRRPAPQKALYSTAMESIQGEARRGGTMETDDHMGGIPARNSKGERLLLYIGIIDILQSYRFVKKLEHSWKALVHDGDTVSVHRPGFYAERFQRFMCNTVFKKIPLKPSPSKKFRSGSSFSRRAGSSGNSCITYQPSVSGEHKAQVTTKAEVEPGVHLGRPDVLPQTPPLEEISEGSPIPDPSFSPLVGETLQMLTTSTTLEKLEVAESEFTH
# Sequence of Mitogen-activated protein kinase 1 (P28482 whole entry): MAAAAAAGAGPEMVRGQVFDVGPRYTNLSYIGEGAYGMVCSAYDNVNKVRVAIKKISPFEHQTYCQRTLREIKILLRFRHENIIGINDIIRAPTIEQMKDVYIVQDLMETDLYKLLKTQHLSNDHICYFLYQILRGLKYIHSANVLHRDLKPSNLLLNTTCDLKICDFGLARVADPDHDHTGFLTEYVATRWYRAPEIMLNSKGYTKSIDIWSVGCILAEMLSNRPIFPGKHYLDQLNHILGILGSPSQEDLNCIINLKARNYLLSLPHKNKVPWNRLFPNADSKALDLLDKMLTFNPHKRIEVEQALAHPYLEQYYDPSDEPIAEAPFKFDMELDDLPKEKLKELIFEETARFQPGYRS
smiles,measurement,setting,value
Nc1cnc(N2CCc3cc(S(=O)(=O)Nc4c(F)cc(Cl)cc4F)cc(N4CCCC4=O)c32)nc1 [TP-020n],% of control,[1],91%
CNCCN1CCC(c2cc(CN(C)C(=O)c3cccc(Oc4ccccc4)c3)ccn2)CC1,% of growth rate,[2],-17.2%
Cc1cc([C@@H](C)Nc2ccccc2C(=O)O)c2nc(N3CCOCC3)cc(=O)n2c1 [AZD-6482],% of control,[3],100%
CC[C@@H]1[C@H](F)C(=O)N[C@@H]1COc1nccc2cc(C(N)=O)c(OC)cc12 [ZIMLOVISERTIB],% of inhibition,[4],25.2%
COc1cc(N(C)c2ccnc3ccc(C(F)(F)F)cc23)cc(OC)c1OC,% binding,[5],75%
O=C(NOC[C@H](O)CO)c1ccc(F)c(F)c1Nc1ccc(I)cc1F,% of control,[6],100%
CCc1ccccc1C(=O)Nc1n[nH]c2c(C)c(F)c(C3C(C#N)=C(C)N(C)C(C)=C3C#N)cc12 [BAY-3827],% of control,[7],11%
Cn1cc(-n2cnc3c(NCc4nc5cc(Cl)c(Cl)cc5[nH]4)nc(N4CCOCC4)nc32)cn1,% of control,[8],6.71%
Cc1cc(F)c(C(=O)Nc2cccc(-c3nncn3C(C)C)n2)cc1-n1cnc(C2CC2)c1,% of control,[9],100%
